Assay results as given in patent US8536175B2, “Quinoxaline carboxamide derivatives as protein tyrosine kinase inhibitors” (Novartis AG, priority 2008, dated 2013).

Each molecule was assayed against FGFR3 kinase (Homo sapiens (Human), UniProt P22607, K650E) (assay: FGFR3 kinase inhibition (protein kinase activity assays)). Details: average of 2 independent measurements; * single value; read-out: FGFR3 IC50.
Type: biochemical
Description: generic assay set-up: Enzyme activities were measured by mixing 10 μL of a 3-fold concentrated compound solution or control with 10 μL of the corresponding substrate mixture (peptidic substrate, ATP and [γ^33P]ATP). The reactions were initiated by addition of 10 μL of a 3-fold concentrated solution of the respective enzyme in assay buffer. […] Filter binding (FB) method: FB assays were carried out in 96-well plates at room temperature for 10 min in a finial volume of 30 μL including the components as indicated in section above. […] After spotting, vacuum was connected and each well rinsed with 200 μL 0.5% H3PO4. Free membranes were removed and washed 4 times on a shaker with 1% H3PO4 and once with ethanol. Membranes were dried and overlaid with addition of 10 μL/well of a scintillation fluid. The plates were eventually sealed and counted in a microplate scintillation counter. IC50 values were calculated by linear regression analysis of the percentage inhibition of the compound.
generic assay set-up: The assay has been run at room temperature on a liquid handling robot. […] After an incubation time of 45 min in the dark, the plates were transferred into a fluorescence reader for counting.
Compounds of formula (I) are assayed to measure their capacity to inhibit FGFR3 kinase as described above.

Sequence of FGFR3 kinase (P22607 23-806 K650E): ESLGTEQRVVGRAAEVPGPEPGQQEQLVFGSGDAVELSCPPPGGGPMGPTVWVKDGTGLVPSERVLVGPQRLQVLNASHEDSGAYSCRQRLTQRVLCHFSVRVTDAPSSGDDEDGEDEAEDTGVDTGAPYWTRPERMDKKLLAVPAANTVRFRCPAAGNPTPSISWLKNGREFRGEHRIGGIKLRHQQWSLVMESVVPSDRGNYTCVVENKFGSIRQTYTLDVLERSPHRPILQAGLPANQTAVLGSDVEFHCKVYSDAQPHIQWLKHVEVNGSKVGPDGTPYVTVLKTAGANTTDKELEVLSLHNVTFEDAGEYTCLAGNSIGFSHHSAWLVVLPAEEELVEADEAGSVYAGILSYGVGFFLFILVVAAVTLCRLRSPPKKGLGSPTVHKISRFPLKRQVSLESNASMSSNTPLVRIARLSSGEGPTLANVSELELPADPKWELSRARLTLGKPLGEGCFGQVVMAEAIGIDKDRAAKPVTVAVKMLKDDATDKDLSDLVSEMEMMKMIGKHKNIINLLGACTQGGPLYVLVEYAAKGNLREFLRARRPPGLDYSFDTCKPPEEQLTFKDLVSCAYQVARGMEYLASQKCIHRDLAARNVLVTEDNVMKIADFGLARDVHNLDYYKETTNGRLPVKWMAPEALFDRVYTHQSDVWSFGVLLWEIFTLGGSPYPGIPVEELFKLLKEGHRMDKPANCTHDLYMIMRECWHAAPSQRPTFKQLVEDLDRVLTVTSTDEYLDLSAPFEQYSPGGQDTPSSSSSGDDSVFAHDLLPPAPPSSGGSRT

| IC50 [nM] | SMILES |
| --- | --- |
| > 10000 | CCN1CCN(Cc2ccc(NC(=O)c3ccc(-c4cc(C)c[n+]([O-])c4C)c4nccnc34)nc2)CC1 [Example 99, 8-(2,5-Dimethyl-1-oxy-pyridin-3-yl)-quinoxaline-5-carboxylic acid [5-(4-ethyl-piperazin-1-ylmethyl)-pyridin-2-yl]-amide] |

Same assay, conditions: read-out: rating (FGFR3 kinase IC50)

| SMILES | IC50 [nM] |
| --- | --- |
| CCN1CCN(Cc2ccc(NC(=O)c3ccc(-c4cc(OC)cc(OC)c4)c4nccnc34)nc2)CC1 [Example 115, 8-(3,5-Dimethoxy-phenyl)-quinoxaline-5-carboxylic acid [5-(4-ethyl-piperazin-1-ylmethyl)-pyridin-2-yl]-amide] | 500 to 50000 |
| COc1ccc(Cl)c(-c2ccc(C(=O)Nc3ccc(OCCN(C)C)cc3)c3nccnc23)c1 [Example 65, 8-(2-Chloro-5-methoxy-phenyl)-quinoxaline-5-carboxylic acid [4-(2-dimethylamino-ethoxy)-phenyl]-amide] | 500 to 50000 |
| COc1cc(OC)c(Cl)c(-c2ccc(C(=O)Nc3ccc(CN(C)CCN(C)C)cn3)c3nccnc23)c1Cl [Example 81, 8-(2,6-Dichloro-3,5-dimethoxy-phenyl)-quinoxaline-5-carboxylic acid (5-{[(2-dimethylamino-ethyl)-methyl-amino]-methyl}-pyridin-2-yl)-amide] | < 100 |
| COc1cc(OC)c(F)c(-c2ccc(C(=O)Nc3ccc(CN4CCN(C)CC4)nc3)c3nccnc23)c1F [Example 89, 8-(2,6-Difluoro-3,5-dimethoxy-phenyl)-quinoxaline-5-carboxylic acid [6-(4-methyl-piperazin-1-ylmethyl)-pyridin-3-yl]-amide] | < 100 |
| COc1cc(OC)c(Cl)c(-c2ccc(C(=O)Nc3ccc(CN4CCS(=O)(=O)CC4)cn3)c3nccnc23)c1Cl [Example 104, 8-(2,6-Dichloro-3,5-dimethoxy-phenyl)-quinoxaline-5-carboxylic acid [5-(1,1-dioxothiomorpholin-4-ylmethyl)-pyridin-2-yl]-amide] | 100 to 500 |
| COc1cc(OC)c(Cl)c(-c2ccc(C(=O)Nc3ccc(N(C)C4CCN(C)CC4)nc3)c3nccnc23)c1Cl [Example 37, 8-(2,6-Dichloro-3,5-dimethoxy-phenyl)-quinoxaline-5-carboxylic acid {6-[methyl-(1-methyl-piperidin-4-yl)-amino]-pyridin-3-yl}-amide] | < 100 |

Next, values leading:

| IC50 [nM] | SMILES |
| --- | --- |
| 100 to 500 | CCN1CCN(Cc2ccc(NC(=O)c3ccc(-c4c(Cl)c(OC)cc(OC)c4Cl)c4cccnc34)cn2)CC1 [Example 169, 5-(2,6-Dichloro-3,5-dimethoxy-phenyl)-quinoline-8-carboxylic acid [6-(4-ethyl-piperazin-1-ylmethyl)-pyridin-3-yl]-amide] |
| < 100 | COc1cc(OC)c(F)c(-c2ccc(C(=O)Nc3nc(CN4CCN(C)CC4)c[nH]3)c3nccnc23)c1F [Example 141, 8-(2,6-Difluoro-3,5-dimethoxy-phenyl)-quinoxaline-5-carboxylic acid [4-(4-methyl-piperazin-1-ylmethyl)-1H-imidazol-2-yl]-amide] |
| < 100 | COc1cc(OC)c(Cl)c(-c2ccc(C(=O)Nc3ncc[nH]3)c3ncccc23)c1Cl [Example 161, 5-(2,6-Dichloro-3,5-dimethoxy-phenyl)-quinoline-8-carboxylic acid (1H-imidazol-2-yl)-amide] |
| 500 to 50000 | COc1cc(OC)c(Cl)c(-c2ccc(C(=O)Nc3nccn3Cc3ccccc3)c3ncccc23)c1Cl [Example 160, 5-(2,6-Dichloro-3,5-dimethoxy-phenyl)-quinoline-8-carboxylic acid (1-benzyl-1H-imidazol-2-yl)-amide] |
| 100 to 500 | COc1cc(OC)c(Cl)c(-c2ccc(C(=O)Nc3cnc[nH]3)c3ncccc23)c1Cl [Example 162, 5-(2,6-Dichloro-3,5-dimethoxy-phenyl)-quinoline-8-carboxylic acid (3H-imidazol-4-yl)-amide] |
| 500 to 50000 | COc1cc(OC)c(Cl)c(-c2ccc(C(=O)Nc3ccn(CCN(C)C)c3)c3nccnc23)c1Cl [Example 121, 8-(2,6-Dichloro-3,5-dimethoxy-phenyl)-quinoxaline-5-carboxylic acid [1-(2-dimethylamino-ethyl)-1H-pyrrol-3-yl]-amide] |
